Laboratory results: patent US10640802B2 (priority 2012, dated 2020)
“Also recorded” adds a separate entry of the source. Where two headings read alike, the source gives them in different places.

What was measured:
[1] = target: T1, Acidithiobacillus ferrooxidans AfArsR variant C102S (Cys102 to serine) (Acidithiobacillus ferrooxidans, UniProt B7J952, C102S); conditions: previously observed; cited from earlier work
[2] = tested on: E. coli AW3110 biosensor cells
[3] = target: T1, Acidithiobacillus ferrooxidans AfArsR variant C102S (Cys102 to serine); assay type: biochemical
[4] = tested on: Acidithiobacillus ferrooxidans AfArsR, wild type (pBADarsR / pACYC184-parsO-gfp biosensor in E. coli AW3110); assay type: cell-based
[5] = target: Acidithiobacillus ferrooxidans AfArsR repressor, wild type (Acidithiobacillus ferrooxidans, UniProt B7J952); assay type: biochemical; conditions: pH 7.5
Acidithiobacillus ferrooxidans AfArsR repressor, wild type, sequence (B7J952 1-118): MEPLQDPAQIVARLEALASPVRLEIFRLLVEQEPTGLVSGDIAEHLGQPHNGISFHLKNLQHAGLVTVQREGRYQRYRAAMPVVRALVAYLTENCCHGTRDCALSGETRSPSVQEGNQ

[6] = tested on: Acidithiobacillus ferrooxidans AfArsR variant C102S (Cys102 eliminated by mutation; pBADarsR / parsO-gfp biosensor in E. coli AW3110); assay type: cell-based
[7] = tested on: C102S biosensor co-cultured with Burkholderia sp. MR1; assay type: cell-based, E. coli / Burkholderia sp. MR1
[8] = tested on: AfarsR-gfp biosensor (E. coli strain AW3110 bearing pBADarsR and pACYC184-parsO-gfp); assay type: cell-based
[9] = tested on: C102S mutant biosensor (E. coli strain AW3110); assay type: cell-based
wild type AfArsR = assay type: binding, Acidithiobacillus ferrooxidans
AfArsR C102S mutant = assay type: binding, Acidithiobacillus ferrooxidans
[10] = read-out: apparent half maximal concentration required for induction

T1 sequence (B7J952 1-118 C102S): as the sequence (B7J952 1-118) above, with C102S counted along it

Molecule: O[As](O)O [As(III), arsenite]
- reduction of affinity by substitution of Cys102 with serine [1]: nearly an order of magnitude
- decrease in cellular fluorescence and growth [2]: ≥ 40 pM
- binding / recognition by C102S [3]: lack of binding; also recorded: no longer recognizes; also recorded: lost its binding ability
- response (anisotropy) [3]: little response
- concentrations sensed by the original biosensor [4]: micromolar concentrations
- induction / derepression of gfp expression [4]: derepressed gfp expression; also recorded: dissociated AfArsR from pars, derepressing gfp expression; also recorded: induced gfp expression
- linear response around concentration [4]: ~10 ppb
- response of the biosensor [4]: practically no response
- EC50 ([5]; read-out: concentration required to decrease anisotropy of AfArsR-DNA complex (half-maximal)): ~10 µM
- EC50 ([5]; read-out: half-maximal concentration decreasing anisotropy of AfArsR-DNA complex): ~10 µM
- induction / derepression of gfp expression [6]: not responsive; also recorded: did not respond
- response to As(III) [6]: no response

Molecule: C[As](O)O [MAs(III), methylarsenite]
- toxic at concentrations in excess of [2]: > 10^−5 M
- binding / recognition by C102S [3]: still senses; also recorded: same binding affinity
- response (anisotropy), concentration range [3]: sub-micromolar range
- response to MAs(III), Rox(III) and PhAs(III) relative to wild type [3]: slightly higher than the wild type
- induction / derepression of gfp expression [4]: proportional to the concentration of the inducer; also recorded: induced gfp expression
- EC50 [4, 10]: ~3 µM
- induction / derepression of gfp expression [6]: proportional to the concentration of the inducer; also recorded: high levels of fluorescence
- EC50 ([6]; read-out: apparent half maximal concentration for induction): ~3 µM

Molecule: O=[As](O)(O)c1ccccc1 [PAA, phenylarsonic acid]
- response of biosensor co-cultured with Burkholderia [7]: didn't respond

Molecule: O=[N+]([O-])c1cc([As](=O)(O)O)ccc1O [Rox(V), 3-nitro-4-hydroxybenzenearsonic acid]
- response of biosensor co-cultured with Burkholderia [7]: didn't respond; also recorded: didn't show fluorescent
- biosensor response (gfp derepression) [8]: unresponsive
- biosensor response (gfp derepression) [9]: unresponsive

Molecule: Sb(III) [listing 1 of 2 here]
- induction of gfp expression [8]: induced gfp expression

Molecule: Sb(III) [listing 2 of 2 here]
- induction / derepression of gfp expression [4]: induced gfp expression

Molecule: arsenate [As(V)]
- effect on anisotropy of the AfArsR-DNA complex (wild type AfArsR): no effect

Molecule: arsenite [As(III)]
- biosensor response [8]: practically no response
- biosensor response (gfp derepression) [8]: induced
- concentration around which the response is linear [8]: ~10 ppb
- gfp expression upon addition of arsenite [8]: derepressed gfp expression; also recorded: derepressing gfp expression
- induction of gfp expression [8]: induced gfp expression
- EC50 [8, 10]: ~10 µM
- biosensor response (gfp derepression) [9]: did not respond
- response of Cys102-lacking biosensor [9]: no response
- response of mutant biosensor [9]: no response
- response to addition of arsenite [9]: not responsive
- binding by purified AfArsR C102S mutant (AfArsR C102S mutant): lost its binding ability
- response of C102S AfArsR (anisotropy) (AfArsR C102S mutant): little response
- EC50 (wild type AfArsR; read-out: half-maximal concentration for decrease of anisotropy): ~10 µM
